System: SARS-CoV-2 Delta variant in Vero E6 cells
Experiment: microbe, parasite or virus in culture
Assay type: cell-based

SMILES: CC(c1ccc(-n2cncn2)cc1)N(C)C(=O)CCC(=O)N1CCC(c2ccccc2)=N1 (centres unmarked) [compound 36]
- EC50 (Severe acute respiratory syndrome coronavirus 2, Vero C1008, read-out: EC50 (inhibition of Delta variant-induced CPE)): 5.77 µM
- inhibition at 33 µM (Severe acute respiratory syndrome coronavirus 2, Vero C1008, 33 μM, read-out: maximum inhibition of CPE): 78%

Source: publication PMC12177760, “In Silico Discovery of a Novel Antiviral Scaffold for SARS-CoV‑2 Targeting the Spike Glycoprotein through the Fatty Acid Binding Pocket” (ACS Omega, 2025)
